Source: ChEMBL document CHEMBL1159116, “Discovery of C-imidazole azaheptapyridine FPT inhibitors” (Bioorg Med Chem Lett, 2010)

target: not listed separately; assay: Inhibition of farnesyl protein transferase assessed as transfer of [3H]farnesyl from [3H]farnesyl pyrophosphate to […]; conditions: not given

Structure (SMILES) | IC50 [nM]
Cn1cncc1[C@H](O)C1=Cc2cccnc2[C@@H](N2CCN(C(=O)Nc3ccc(C#N)cc3)CC2)c2ccc(Cl)cc21 | 0.5
CC(C)OC(=O)N1CCN([C@H]2c3ccc(Cl)cc3C([C@@H](O)c3cncn3C)=Cc3cccnc32)CC1 | 0.75
Cn1cncc1[C@H](O)C1=Cc2cccnc2[C@@H](N2CCN(C(=O)OC3CCCCC3)CC2)c2ccc(Cl)cc21 | 1
Cn1cncc1[C@H](O)C1=Cc2cccnc2[C@@H](N2CCN(C(=O)OC3CCCC3)CC2)c2ccc(Cl)cc21 | 0.76
CO[C@@H](C1=Cc2cccnc2[C@@H](N2CCN(C(=O)OC(C)(C)C)CC2)c2ccc(Cl)cc21)c1cncn1C | 2.1
Cn1cncc1[C@H](O)C1=Cc2cccnc2[C@@H](N2CCN(C(=O)OC(C)(C)C)CC2)c2ccc(Cl)cc21 | 0.38
Cn1cncc1CC1=Cc2cccnc2[C@@H](N2CCN(C(=O)Nc3ccc(C#N)cc3)CC2)c2ccc(Cl)cc21 | 0.29
Cn1cncc1[C@H](O)C1=Cc2cccnc2[C@@H](N2CCN(C(=O)NCc3ccccc3)CC2)c2ccc(Cl)cc21 | 0.13
Cn1cncc1[C@H](O)C1=Cc2cccnc2[C@@H](N2CCN(C(=O)NC3CCCCC3)CC2)c2ccc(Cl)cc21 | 0.47
Cn1cncc1CC1=Cc2cccnc2[C@H](N2CCN(C(=O)Nc3ccc(C#N)cc3)CC2)c2ccc(Cl)cc21 | 9.6
Cn1cncc1[C@@H](O)C1=Cc2cccnc2[C@@H](N2CCN(C(=O)OC(C)(C)C)CC2)c2ccc(Cl)cc21 | 12
CO[C@H](C1=Cc2cccnc2[C@@H](N2CCN(C(=O)OC(C)(C)C)CC2)c2ccc(Cl)cc21)c1cncn1C | 4.8
CC(=O)O[C@H](C1=Cc2cccnc2[C@@H](N2CCN(C(=O)OC(C)(C)C)CC2)c2ccc(Cl)cc21)c1cncn1C | 5.5
Cn1cncc1[C@H](O)C1=Cc2cccnc2[C@@H](N2CCN(C(=O)OC3(C)CCCCC3)CC2)c2ccc(Cl)cc21 | 0.3
Cn1cncc1[C@H](O)C1=Cc2cccnc2[C@@H](N2CCN(C(=O)NC(C)(C)C)CC2)c2ccc(Cl)cc21 | 0.4
N#Cc1ccc(NC(=O)N2CCN([C@H]3c4ccc(Cl)cc4C(Cc4cnc[nH]4)=Cc4cccnc43)CC2)cc1 | 0.31

system: NIH3T3; assay: Cytotoxicity against mouse H-Ras transformed NIH/3T3 cells by soft agar colony formation assay; assay type: functional, cell-based; conditions: Mus musculus, NIH3T3; read-out: IC50

Structure (SMILES) | IC50 [nM]
Cn1cncc1[C@H](O)C1=Cc2cccnc2[C@@H](N2CCN(C(=O)Nc3ccc(C#N)cc3)CC2)c2ccc(Cl)cc21 | 0.5
CC(C)OC(=O)N1CCN([C@H]2c3ccc(Cl)cc3C([C@@H](O)c3cncn3C)=Cc3cccnc32)CC1 | 0.5
Cn1cncc1[C@H](O)C1=Cc2cccnc2[C@@H](N2CCN(C(=O)OC3CCCCC3)CC2)c2ccc(Cl)cc21 | 1
Cn1cncc1[C@H](O)C1=Cc2cccnc2[C@@H](N2CCN(C(=O)OC3CCCC3)CC2)c2ccc(Cl)cc21 | 0.5
CO[C@@H](C1=Cc2cccnc2[C@@H](N2CCN(C(=O)OC(C)(C)C)CC2)c2ccc(Cl)cc21)c1cncn1C | 4
Cn1cncc1[C@H](O)C1=Cc2cccnc2[C@@H](N2CCN(C(=O)OC(C)(C)C)CC2)c2ccc(Cl)cc21 | 0.5
Cn1cncc1CC1=Cc2cccnc2[C@@H](N2CCN(C(=O)Nc3ccc(C#N)cc3)CC2)c2ccc(Cl)cc21 | 0.5
Cn1cncc1[C@H](O)C1=Cc2cccnc2[C@@H](N2CCN(C(=O)NCc3ccccc3)CC2)c2ccc(Cl)cc21 | 2.7
Cn1cncc1[C@H](O)C1=Cc2cccnc2[C@@H](N2CCN(C(=O)NC3CCCCC3)CC2)c2ccc(Cl)cc21 | 18
CO[C@H](C1=Cc2cccnc2[C@@H](N2CCN(C(=O)OC(C)(C)C)CC2)c2ccc(Cl)cc21)c1cncn1C | 10
CC(=O)O[C@H](C1=Cc2cccnc2[C@@H](N2CCN(C(=O)OC(C)(C)C)CC2)c2ccc(Cl)cc21)c1cncn1C | 1
Cn1cncc1[C@H](O)C1=Cc2cccnc2[C@@H](N2CCN(C(=O)OC3(C)CCCCC3)CC2)c2ccc(Cl)cc21 | 1
Cn1cncc1[C@H](O)C1=Cc2cccnc2[C@@H](N2CCN(C(=O)NC(C)(C)C)CC2)c2ccc(Cl)cc21 | 0.5
N#Cc1ccc(NC(=O)N2CCN([C@H]3c4ccc(Cl)cc4C(Cc4cnc[nH]4)=Cc4cccnc43)CC2)cc1 | 4

same assay, conditions: nih3t3

Structure (SMILES) | IC50
Cn1cncc1CC1=Cc2cccnc2[C@H](N2CCN(C(=O)Nc3ccc(C#N)cc3)CC2)c2ccc(Cl)cc21 | Not Active
Cn1cncc1[C@@H](O)C1=Cc2cccnc2[C@@H](N2CCN(C(=O)OC(C)(C)C)CC2)c2ccc(Cl)cc21 | Not Active

system: not listed separately; assay: (§1) AUC (0 to 6 hrs) in rat at 10 mg/kg; assay type: ADME, organism-based, Plasma; set-up: time < 6 hr, dose 10 mg/kg; conditions: plasma

Structure (SMILES) | AUC(0-t) at 6 h [µM·h]
Cn1cncc1[C@H](O)C1=Cc2cccnc2[C@@H](N2CCN(C(=O)OC(C)(C)C)CC2)c2ccc(Cl)cc21 | 2.57

system: Rattus norvegicus; assay: as §1; assay type: ADME, organism-based, Plasma; set-up: time < 6 hr, dose 10 mg/kg; conditions: in vivo, 6 h

Structure (SMILES) | AUC [µM·h]
Cn1cncc1[C@H](O)C1=Cc2cccnc2[C@@H](N2CCN(C(=O)Nc3ccc(C#N)cc3)CC2)c2ccc(Cl)cc21 | 0.1
